Reference: PubChem BioAssay (NCI)
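Tested at 5 concentrations; 48 h exposure; 96-well plates; endpoints linearly interpolated, else capped at highest concentration. TGI: total growth inhibition.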

Legend:
Test in all cases: growth of human tumour cells (NCI), 48 h
786-0 renal = test system: 786-0 renal
A498 renal = test system: A498 renal
A549 NSCLC = test system: A549 NSCLC
ACHN renal = test system: ACHN renal
BT-549 breast = test system: BT-549 breast
CAKI-1 renal = test system: CAKI-1 renal
CCRF-CEM leukemia = test system: CCRF-CEM leukemia
COLO 205 colon = test system: COLO 205 colon
DU-145 prostate = test system: DU-145 prostate
EKVX NSCLC = test system: EKVX NSCLC
HCT-116 colon = test system: HCT-116 colon
HCT-15 colon = test system: HCT-15 colon
HOP-62 NSCLC = test system: HOP-62 NSCLC
HOP-92 NSCLC = test system: HOP-92 NSCLC
HS 578T breast = test system: HS 578T breast
HT29 colon = test system: HT29 colon
IGROV1 ovarian = test system: IGROV1 ovarian
KM12 colon = test system: KM12 colon
LOX IMVI melanoma = test system: LOX IMVI melanoma
M14 melanoma = test system: M14 melanoma
MALME-3M melanoma = test system: MALME-3M melanoma
MCF7 breast = test system: MCF7 breast
MDA-MB-231 breast = test system: MDA-MB-231 breast
MDA-MB-435 = test system: MDA-MB-435
MDA-N = test system: MDA-N
MOLT-4 leukemia = test system: MOLT-4 leukemia
NCI-H226 lung = test system: NCI-H226 lung
NCI-H23 lung = test system: NCI-H23 lung
NCI-H460 lung = test system: NCI-H460 lung
NCI-H522 lung = test system: NCI-H522 lung
NCI/ADR-RES ovarian = test system: NCI/ADR-RES ovarian
OVCAR-3 ovarian = test system: OVCAR-3 ovarian
OVCAR-4 ovarian = test system: OVCAR-4 ovarian
OVCAR-5 ovarian = test system: OVCAR-5 ovarian
OVCAR-8 ovarian = test system: OVCAR-8 ovarian
PC-3 prostate = test system: PC-3 prostate
RPMI-8226 leukemia = test system: RPMI-8226 leukemia
RXF 393 renal = test system: RXF 393 renal
SF-268 CNS = test system: SF-268 CNS
SF-295 CNS = test system: SF-295 CNS
SK-MEL-2 melanoma = test system: SK-MEL-2 melanoma
SK-MEL-28 melanoma = test system: SK-MEL-28 melanoma
SK-MEL-5 melanoma = test system: SK-MEL-5 melanoma
SK-OV-3 ovarian = test system: SK-OV-3 ovarian
SN12C renal = test system: SN12C renal
SNB-19 CNS = test system: SNB-19 CNS
SNB-75 CNS = test system: SNB-75 CNS
SR leukemia = test system: SR leukemia
SW-620 colon = test system: SW-620 colon
T-47D breast = test system: T-47D breast
TK-10 renal = test system: TK-10 renal
U251 CNS = test system: U251 CNS
UACC-257 melanoma = test system: UACC-257 melanoma
UACC-62 melanoma = test system: UACC-62 melanoma
UO-31 renal = test system: UO-31 renal
HCC-2998 colon = test system: HCC-2998 colon
HL-60(TB) leukemia = test system: HL-60(TB) leukemia
K-562 leukemia = test system: K-562 leukemia
SF-539 CNS = test system: SF-539 CNS

For `CCOC(=O)/C(C(N)=O)=C(\O)C(=O)/C=C(\O)c1ccc(Cl)cc1`, the TGI (786-0 renal) was 32.2 µM, the TGI (A498 renal) was > 100 µM and the TGI (A549 NSCLC) was > 100 µM. It also gave a TGI (ACHN renal) of 39.7 µM, a TGI (BT-549 breast) of 33.6 µM and a TGI (CAKI-1 renal) of 64 µM. The TGI (CCRF-CEM leukemia) was 24.4 µM, the TGI (COLO 205 colon) was 32.6 µM and the TGI (DU-145 prostate) was 35.8 µM. For the same molecule, the TGI (EKVX NSCLC) was 58.3 µM, the TGI (HCT-116 colon) was 28.7 µM and the TGI (HCT-15 colon) was 34.8 µM. For the same molecule, the TGI (HOP-62 NSCLC) was 60.7 µM, the TGI (HOP-92 NSCLC) was 53.9 µM and the TGI (HS 578T breast) was > 100 µM. For the same molecule, the TGI (HT29 colon) was 41.4 µM, the TGI (IGROV1 ovarian) was 36.2 µM and the TGI (KM12 colon) was 36.9 µM. The TGI (LOX IMVI melanoma) was 31 µM, the TGI (M14 melanoma) was 48.3 µM and the TGI (MALME-3M melanoma) was 45.1 µM. The TGI (MCF7 breast) was 62.4 µM, the TGI (MDA-MB-231 breast) was 32.2 µM and the TGI (MDA-MB-435) was 57.7 µM. For the same molecule, the TGI (MDA-N) was 38.5 µM, the TGI (MOLT-4 leukemia) was 40.6 µM and the TGI (NCI-H226 lung) was 48.8 µM. For the same molecule, the TGI (NCI-H23 lung) was 33.6 µM, the TGI (NCI-H460 lung) was 31.5 µM and the TGI (NCI-H522 lung) was 34.3 µM. The TGI (NCI/ADR-RES ovarian) was 45 µM, the TGI (OVCAR-3 ovarian) was 66.4 µM and the TGI (OVCAR-4 ovarian) was > 100 µM. For the same molecule, the TGI (OVCAR-5 ovarian) was 54.3 µM, the TGI (OVCAR-8 ovarian) was 31.7 µM and the TGI (PC-3 prostate) was 38.1 µM. It also gave a TGI (RPMI-8226 leukemia) of 44.8 µM, a TGI (RXF 393 renal) of 32.2 µM and a TGI (SF-268 CNS) of 59.9 µM. The TGI (SF-295 CNS) was > 100 µM, the TGI (SK-MEL-2 melanoma) was 34.4 µM and the TGI (SK-MEL-28 melanoma) was 63.2 µM. The TGI (SK-MEL-5 melanoma) was 36.8 µM, the TGI (SK-OV-3 ovarian) was > 100 µM and the TGI (SN12C renal) was 32.2 µM. The TGI (SNB-19 CNS) was > 100 µM, the TGI (SNB-75 CNS) was 31 µM and the TGI (SR leukemia) was 44.5 µM. It also gave a TGI (SW-620 colon) of 50.1 µM, a TGI (T-47D breast) of 47.9 µM and a TGI (TK-10 renal) of 26 µM. It also gave a TGI (U251 CNS) of 29.1 µM, a TGI (UACC-257 melanoma) of 32.2 µM and a TGI (UACC-62 melanoma) of 43.1 µM. For the same molecule, the TGI (UO-31 renal) was 33.4 µM.

With `Nc1n[n+]([O-])c2ccc(Cl)cc2[n+]1[O-]` the TGI (786-0 renal) was > 100 µM, the TGI (A498 renal) was 96.6 µM and the TGI (A549 NSCLC) was > 100 µM. The TGI (ACHN renal) was > 100 µM, the TGI (BT-549 breast) was 29.2 µM and the TGI (CAKI-1 renal) was 91.2 µM. The TGI (CCRF-CEM leukemia) was > 100 µM, the TGI (COLO 205 colon) was 30.9 µM and the TGI (DU-145 prostate) was > 100 µM. For the same molecule, the TGI (EKVX NSCLC) was 80.1 µM, the TGI (HCC-2998 colon) was 55.5 µM and the TGI (HCT-116 colon) was > 100 µM. The TGI (HCT-15 colon) was 58.9 µM, the TGI (HL-60(TB) leukemia) was > 100 µM and the TGI (HOP-62 NSCLC) was 79.7 µM. For the same molecule, the TGI (HS 578T breast) was > 100 µM, the TGI (HT29 colon) was 77 µM and the TGI (IGROV1 ovarian) was 25.3 µM. For the same molecule, the TGI (K-562 leukemia) was > 100 µM, the TGI (KM12 colon) was 32.6 µM and the TGI (LOX IMVI melanoma) was > 100 µM. For the same molecule, the TGI (M14 melanoma) was 40.4 µM, the TGI (MALME-3M melanoma) was 59 µM and the TGI (MCF7 breast) was > 100 µM. For the same molecule, the TGI (MDA-MB-231 breast) was > 100 µM, the TGI (MDA-MB-435) was 74.2 µM and the TGI (MDA-N) was 73.5 µM. The TGI (MOLT-4 leukemia) was > 100 µM, the TGI (NCI-H226 lung) was 72.9 µM and the TGI (NCI-H23 lung) was 46.4 µM. For the same molecule, the TGI (NCI-H522 lung) was 38.2 µM, the TGI (NCI/ADR-RES ovarian) was > 100 µM and the TGI (OVCAR-5 ovarian) was 79 µM. The TGI (PC-3 prostate) was > 100 µM, the TGI (RPMI-8226 leukemia) was > 100 µM and the TGI (RXF 393 renal) was 54.1 µM. For the same molecule, the TGI (SF-268 CNS) was > 100 µM, the TGI (SF-295 CNS) was > 100 µM and the TGI (SF-539 CNS) was 58.7 µM. The TGI (SK-MEL-2 melanoma) was > 100 µM, the TGI (SK-MEL-28 melanoma) was 67.7 µM and the TGI (SK-MEL-5 melanoma) was 16.5 µM. For the same molecule, the TGI (SK-OV-3 ovarian) was 52.9 µM, the TGI (SN12C renal) was > 100 µM and the TGI (SNB-19 CNS) was > 100 µM. For the same molecule, the TGI (SNB-75 CNS) was > 100 µM, the TGI (SR leukemia) was > 100 µM and the TGI (SW-620 colon) was 61.2 µM. For the same molecule, the TGI (T-47D breast) was 99.4 µM, the TGI (TK-10 renal) was > 100 µM and the TGI (U251 CNS) was 67.3 µM. The TGI (UACC-257 melanoma) was 54.3 µM and the TGI (UO-31 renal) was > 100 µM.
